Where two headings read alike, the source gives them in different places.
What was measured:
[1] = 10 MHz, 37° C
Protocol: The relations of protons present in water and plasma exposed to the chelate product of Example 7 was tested by NMR for relaxities, in msec, at 10 MHz, 37° C.

selected body organs = settings: for T1: 0.01 mmol/kg i.v.
Protocol: Each of seven rabbits was injected intravenously with 0.01 mmol/kg of the solution obtained in Example 7. The rabbits were sacrificed at 0.25, 0.50, 1.0, 2.0, 4, 6 and 24 hours post-injection, and the proton relation values of selected body organs were measured with NMR, in vitro, at 10 MHz.

[2] = Protocol: The compound DPDP was studied potentiometrically from pH 11.2 to 2.0. Data sets were collected on a custom-built automatic potentiometric titration apparatus composed of a METROHM 655 DOSIMAT automatic buret, a FISHER ACCUMET pH meter with a CORNING calomel combination electrode, a custom-blown water jacketed titration cell, a BRINKMAN LAUDA K-2/R constant temperature bath and a COMMODORE 64 computer. […] Data analysis was performed on an IBM-AT computer using the least squares program, BETA (Harris, W. et al, supra), and the data analysis program, HANDNBAR (Harris, W. et al, supra). The titrants were standardized by phenophthalein titration as follows: KOH was calibrated against potassium hydrogen phthalate (a primary standard), and HCl solutions were calibrated against the KOH standard. […] All solutions were made from distilled, deionized water that was further purified on a MILLI-Q cartridge system, degassed, and then kept under an atmosphere of argon which had been scrubbed for CO2 and O2. Additions of EDTA and Mn(II) solutions were performed using calibrated GILMOT pipets.
The metal complex titration was performed by adding 152.2 mg (0.2383 mmoles) to 74.6 ml of a high pH aqueous solution.

[3] = defects not observable without Mn(DPDP)

Cc1ncc(COP(=O)(O)O)c(CN(CCN(CC(=O)[O-])Cc2c(COP(=O)(O)O)cnc(C)c2O)CC(=O)[O-])c1O.[Mn+2] [Mn(DPDP), sodium-calcium salt of a manganese chelate complex of N,N,-bis-(pyridoxal-5-phosphate)ethylenediamine-N,N'-diacetic acid or N,N'-bis(3-hydroxy-2-methyl-5-phosphonomethyl-4-pyridylmethyl)ethylenediamine-N,N'-diacetic acid]
T1 (Plasma) ([1]; 0.000039 molar): 1103 ms | T1 (Plasma) ([1]; 0.000078 molar): 995 ms | T1 (Plasma) ([1]; 0.000156 molar): 856 ms | T1 (Water) ([1]; 0.000156 molar): 1470 ms | T1 (Plasma) ([1]; 0.000312 molar): 624 ms | T1 (Water) ([1]; 0.000312 molar): 1083 ms | T1 (Plasma) ([1]; 0.000625 molar): 398 ms | T1 (Water) ([1]; 0.000625 molar): 639 ms | T1 (Plasma) ([1]; 0.00125 molar): 240 ms | T1 (Water) ([1]; 0.00125 molar): 332 ms | T1 (Plasma) ([1]; 0.0025 molar): 139 ms | T1 (Water) ([1]; 0.0025 molar): 175 ms | T2 (Plasma) ([1]; 0.0025 molar): 124 ms | T1 (Plasma) ([1]; 0.005 molar): 74 ms | T1 (Water) ([1]; 0.005 molar): 100 ms | T2 (Plasma) ([1]; 0.005 molar): 68 ms | T2 (Water) ([1]; 0.005 molar): 86 ms | T1 (Plasma) ([1]; 0.010 molar): 40 ms | T1 (Water) ([1]; 0.010 molar): 43 ms | T2 (Plasma) ([1]; 0.010 molar): 34 ms | T2 (Water) ([1]; 0.010 molar): 41 ms | T1 (selected body organs; Bile, 0.25 hr): 160 ms | T1 (selected body organs; Bile, 0.50 hr): 46 ms | T1 (selected body organs; Bile, 1.0 hr): 25 ms | T1 (selected body organs; Bile, 2 hr): 21 ms | T1 (selected body organs; Bile, 4 hr): < 1 ms | T1 (selected body organs; Bile, 6 hr): 14 ms | T1 (selected body organs; Bile, 24 hr): 107 ms | T1 (selected body organs; Heart, 0.25 hr): 231 ms | T1 (selected body organs; Heart, 0.50 hr): 352 ms | T1 (selected body organs; Heart, 1.0 hr): 381 ms | T1 (selected body organs; Heart, 2 hr): 507 ms | T1 (selected body organs; Heart, 4 hr): 522 ms | T1 (selected body organs; Heart, 6 hr): 663 ms | T1 (selected body organs; Heart, 24 hr): 660 ms | T1 (selected body organs; Liver, 0.25 hr): 68 ms | T1 (selected body organs; Liver, 0.50 hr): 76 ms | T1 (selected body organs; Liver, 1.0 hr): 48 ms | T1 (selected body organs; Liver, 2 hr): 48 ms | T1 (selected body organs; Liver, 4 hr): 145 ms | T1 (selected body organs; Liver, 6 hr): 209 ms | T1 (selected body organs; Liver, 24 hr): 315 ms | T1 (selected body organs; Renal cortex, 0.25 hr): 202 ms | T1 (selected body organs; Renal cortex, 0.50 hr): 191 ms | T1 (selected body organs; Renal cortex, 1.0 hr): 229 ms | T1 (selected body organs; Renal cortex, 2 hr): 192 ms | T1 (selected body organs; Renal cortex, 4 hr): 210 ms | T1 (selected body organs; Renal cortex, 6 hr): 239 ms | T1 (selected body organs; Renal cortex, 24 hr): 328 ms | T1 (selected body organs; Renal medulla, 0.25 hr): 192 ms | T1 (selected body organs; Renal medulla, 0.50 hr): 231 ms | T1 (selected body organs; Renal medulla, 1.0 hr): 236 ms | T1 (selected body organs; Renal medulla, 2 hr): 310 ms | T1 (selected body organs; Renal medulla, 4 hr): 340 ms | T1 (selected body organs; Renal medulla, 6 hr): 375 ms | T1 (selected body organs; Renal medulla, 24 hr): 563 ms | clearance through both the renal and hepatobiliary systems, time post-injection (selected body organs; rabbit, i.v.): 6 to 8 h | uptake and clearance in the liver, renal cortex, renal medulla and heart (selected body organs; rabbit, i.v.): rapid uptake and clearance | log Kf (formation constant) ([2]; Mn(II) chelate, potentiometric, pH 11.1 to 2.0): 14.8 | binding of Mn(II) ion to the chelating agent at physiological pH ([2]; physiological pH, Mn stabilized at the +2 valence): quantitatively bound | pH below which the complex begins to demetallate ([2]; titration data): below 4.5 | detection of blood-brain barrier defects by NMRI tomography [3]: defects were observed by NMRI tomography

— patent publication US4933456A, “Dipyridoxyl phosphate NMRI contrast agents” (Salutar, Inc., priority 1987, dated 1990)
